Test results: patent US4059693A, “Analgesic action of substance P” (priority 1976, dated 1977)

How the values were obtained:
Male Swiss Webster mice = conditions: mouse, in vivo; for Reaction times with naloxone: ip
mice [1] = assay: Hot plate analgesiometer in mice, intraperitoneal injection; type: in vivo
Method: The drug was administered by intraperitoneal injection, employing the solution prepared according to Example 1. Three groups of mice, 5 animals per group, received a single injection ip of Substance P or vehicle alone. Mice weighed 30 grams each. Group 1: Substance P, 5 microgram per mouse ([…])([…]) Group 2: Substance P, 1 microgram per mouse (1 × 10^-6 g)(33.3 microgram/kg) Group 3: Vehicle alone
On the day before the animals were to be given the drug, each animal was tested on the hot plate analgesiometer for its reaction time (the time in seconds after placing on the hot plate until the animal jumps). The next day animals were given the injection and then tested on the analgesiometer at times of 30, 60, 90, 120 and 150 minutes after the injection. From the reaction times observed the control reaction time determined the previous day was subtracted. The reaction times given in the table below are the increase in reaction time (over the control value) due to the injection.

mice [2] = assay: Reaction time in mice after intravenous injection in the tail vein; type: in vivo; conditions: 50 ng iv tail vein, 90 minutes
Method: 50 ng of Substance P was administered peripherally to mice by intravenous injection in the tail vein. The mean reaction time at 90 minutes was 6.2 seconds.

mammals = assay: Analgesic potency, addictiveness and side-effects with morphine sulfate as standard of reference; type: in vivo
test animals = assay: Time course of analgesia in test animals; type: in vivo
Source text: The dosage rate is selected so as to provide analgesia for a useful minimum period of time, while at the same time avoiding any impact of sudden severe lowering of blood pressure.

blood pressure = conditions: intravenous administration described in the prior art; cited from earlier work
anaesthetized rats = conditions: injected into anaesthetized rats; cited from earlier work
human blister base = conditions: isolated, not pure compound per the patent; cited from earlier work
brain opiate receptor = conditions: in vitro; cited from earlier work
[3] = cited from earlier work

Molecule: CN1CC[C@]23c4c5ccc(O)c4O[C@H]2[C@@H](O)C=C[C@H]3[C@H]1C5.O=S(=O)(O)O [MS, morphine sulfate, reference compound]
- Reaction times with naloxone (Male Swiss Webster mice): not increased during the first measurement, but gradually became longer

Molecule: CSCC[C@H](NC(=O)[C@H](CC(C)C)NC(=O)CNC(=O)[C@H](Cc1ccccc1)NC(=O)[C@H](Cc1ccccc1)NC(=O)[C@H](CCC(N)=O)NC(=O)[C@H](CCC(N)=O)NC(=O)[C@@H]1CCCN1C(=O)[C@H](CCCCN)NC(=O)[C@@H]1CCCN1C(=O)[C@@H](N)CCCNC(=N)N)C(N)=O [Substance P, H-Arg-Pro-Lys-Pro-Gln-Gln-Phe-Phe-Gly-Leu-Met-NH2]
- Reaction Time Over Controls (mice [1]; Group 1: (5 × 10^-9 g)(0.167 microgram/kg) ip, 30 min): 7.04 ± 1.91 s
- Reaction Time Over Controls (mice [1]; Group 1: (5 × 10^-9 g)(0.167 microgram/kg) ip, 60 min): 6.56 ± 2.4 s
- Reaction Time Over Controls (mice [1]; Group 1: (5 × 10^-9 g)(0.167 microgram/kg) ip, 90 min): 8.36 ± 3.2 s
- Reaction Time Over Controls (mice [1]; Group 1: (5 × 10^-9 g)(0.167 microgram/kg) ip, 120 min): 6.24 ± 1.4 s
- Reaction Time Over Controls (mice [1]; Group 1: (5 × 10^-9 g)(0.167 microgram/kg) ip, 150 min): 3.84 ± 2.12 s
- Reaction Time Over Controls (mice [1]; Group 2: 1 microgram per mouse (33.3 microgram/kg) ip, 30 min): 7.6 ± 2.68 s
- Reaction Time Over Controls (mice [1]; Group 2: 1 microgram per mouse (33.3 microgram/kg) ip, 60 min): 11.44 ± 3.49 s
- Reaction Time Over Controls (mice [1]; Group 2: 1 microgram per mouse (33.3 microgram/kg) ip, 90 min): 10.96 ± 1.33 s
- Reaction Time Over Controls (mice [1]; Group 2: 1 microgram per mouse (33.3 microgram/kg) ip, 120 min): 8.2 ± 3.18 s
- Reaction Time Over Controls (mice [1]; Group 2: 1 microgram per mouse (33.3 microgram/kg) ip, 150 min): 4.08 ± 1.26 s
- Increases in reaction times compared to the vehicle controls (Student t test) (mice [1]; groups 1 and 2, 150 min): not statistically significant
- Increases in reaction times compared to the vehicle controls (Student t test) (mice [1]; groups 1 and 2, all times except 150 min): significant
- Reaction times compared to those of controls (Male Swiss Webster mice): significantly increased
- Reaction times with naloxone (Male Swiss Webster mice): not increased during the first measurement, but gradually became longer
- Mean reaction time (mice [2]): 6.2 s
- Addictiveness (mammals; in vivo): nonaddictive
- Side-effects (mammals; in vivo): relatively free from significant side-effects
- Potency as an analgesic relative to morphine sulfate (mammals; morphine sulfate as standard of reference): about 450 times
- Commencement of analgesia following administration (test animals): 20 to 30 min
- Time to peak effectiveness of analgesia (test animals): about 1.5 hours
- Duration of sharp lowering of blood pressure (blood pressure): ≤ 7 min
- Sialogogic activity (anaesthetized rats): stimulated salivary secretion
- Algogen (pain-producing) activity (human blister base): very potent algogen

Molecule: Lipotropin C-Fragment: the entire 61-91 LPH fragment, extracted from pig pituitary (YGGFMTSEKSQTPLVTLFKNAIVKNAHKKGQ; Beta-endorphin; UniProt P01192 237-267, looked up)
- Potency relative to methionine enkephalin in inhibiting binding of naloxone and dihydromorphine (brain opiate receptor): approximately thirty

Molecule: Tyr-Gly-Gly-Phe-Met [Met-Enk]
- Analgesic activity in vivo [3]: does not exhibit significant analgesic activity in vivo
